Experimental findings from patent US8293738B2, “Indazole inhibitors of kinase” (Abbott Laboratories, priority 2010, dated 2012) are described below.

Usually IC50 stands for the concentration that gives 50% inhibition.

Common to all, as to type: biochemical
One assay addresses KDR (Homo sapiens, UniProt P35968). Put plainly: KDR HTRF in vitro kinase assay. More on the design: purified enzyme (His6-KDR 789-1354, MW 63 kD). Conditions: 1 mM ATP, 60 minutes. The protocol: To determine the activity of the various kinases, a homogenous time-resolved fluorescence (HTRF) in vitro kinase assay was used. (Mathis, G., HTRF(R) Technology. J Biomol Screen, 1999. 4(6): p. 309-314; Alfred J. Kolb, Paul V. Kaplita, David J. Hayes, Young-Whan Park, Christine Pernell, John S. Major and Gerard Mathis, Drug Discovery Today, 1998, 3, 333-342.)
For example for KDR, 7 ng/well of purified enzyme (His6-KDR 789-1354, MW 63 kD) was mixed with 0.5 μM N-biotinylated substrate (Biotin-Ahx-AEEEYFFLA-amide (SEQ. ID. 1)), various concentrations of inhibitor in reaction buffer (50 mM HEPES, pH 7.1, mM MgCl2, 2 mM MnCl2, 0.1% BSA and 1 mM DTT, […] final volume), ATP (1 mM final conc.) in a black 384-well plate. After 60 minutes incubation at room temperature, the reaction was quenched by addition of a buffered EDTA solution (final approximate concentrations: 30 mM EDTA, 0.1% BSA, 0.1% Triton X-100 and 0.24M KF) and a solution of revelation agents (to give 0.084 ng/well streptavidin-XL-665 (Cis-Bio) and 6.5 ng/well antiphsophotyrosine mAb PT66-K Europium kryptate) was added to the reaction mixture. The quenched reaction was allowed to stand at room temperature for 3 hours and was then read in a time-resolved fluorescence detector (InVision, Perkin-Elmer) at 620 nm and 665 nm sequentially with excitation. The ratio between the signal of 620 nm and 665 nm was used in the calculation of the IC50.

For a further assay, the target named is T1, Aurora A (Homo sapiens, UniProt O14965).
T1 sequence (O14965 1-403): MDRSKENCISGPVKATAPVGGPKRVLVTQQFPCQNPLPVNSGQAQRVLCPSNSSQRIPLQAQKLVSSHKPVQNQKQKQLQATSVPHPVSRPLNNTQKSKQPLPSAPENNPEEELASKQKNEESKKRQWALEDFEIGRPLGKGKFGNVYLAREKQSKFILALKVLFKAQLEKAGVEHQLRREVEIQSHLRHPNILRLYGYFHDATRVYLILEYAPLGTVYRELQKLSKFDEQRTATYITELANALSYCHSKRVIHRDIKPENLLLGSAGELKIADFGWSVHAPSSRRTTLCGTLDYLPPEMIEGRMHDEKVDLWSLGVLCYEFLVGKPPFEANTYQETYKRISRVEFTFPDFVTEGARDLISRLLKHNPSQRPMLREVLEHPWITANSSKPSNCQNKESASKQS
Nature of the assay: Aurora A enzyme assay (time-resolved fluorescence, STK substrate-2). Conditions: 1 mM ATP, 1 hour. On the procedure: To determine Aurora A and C activity of representative compounds of the invention, Active Aurora A or C enzyme was incubated in wells of a 384 well plate with biotinylated STK substrate-2 (Upstate), 1 mM ATP, and various concentrations of inhibitors in a Hepes buffer, pH 7.4 containing MgCl2, sodium othrovanadate, and Triton X-100. After 1 hour, the reaction was stopped with EDTA and anti-phospho-STK antibody Europium Cryptate (Upstate) and SA-XL665 (Upstate) were added to detect the phosphopeptide. The amount of phosphorylation was determined by the time-resolved fluorescence ratio of signals at 665 nm and 615 nm. The IC50s were calculated by an exponential fit of the inhibition values with the inhibitor concentrations using Assay Explorer software.

The target of the next assay is T2, Aurora B (Homo sapiens, UniProt Q96GD4).
T2 construct: Active Aurora B enzyme (recombinant residues 1-344)
T2 sequence (Q96GD4 whole entry, the tested form may be a part): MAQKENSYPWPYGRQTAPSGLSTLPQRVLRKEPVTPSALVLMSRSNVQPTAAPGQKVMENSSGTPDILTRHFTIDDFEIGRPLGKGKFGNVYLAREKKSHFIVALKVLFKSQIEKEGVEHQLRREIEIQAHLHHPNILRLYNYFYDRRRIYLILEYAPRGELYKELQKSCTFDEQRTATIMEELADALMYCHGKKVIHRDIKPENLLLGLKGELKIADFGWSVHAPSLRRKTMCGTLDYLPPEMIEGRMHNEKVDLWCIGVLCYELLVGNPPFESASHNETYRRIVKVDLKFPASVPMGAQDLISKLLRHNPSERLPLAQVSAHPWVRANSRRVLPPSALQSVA
T2 sequence (Q9NQS7 826-918 partner limits assumed): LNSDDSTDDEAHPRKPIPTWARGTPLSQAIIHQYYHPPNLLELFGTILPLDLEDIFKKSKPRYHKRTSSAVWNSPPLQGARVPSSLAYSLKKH
Put plainly: Aurora B enzyme assay (time-resolved fluorescence, histone H3 peptide). Conditions: 1 mM ATP, 1 hour. The protocol: To determine Aurora B activity of representative compounds of the invention, Active Aurora B enzyme (recombinant residues 1-344) and INCENP (recombinant GST fusion protein (Upstate)) were incubated in wells of a 384 well plate with biotinylted histone H3 peptide residues 1-21 (Upstate), 1 mM ATP, and various concentrations of inhibitors in a HEPES buffer, pH 7.4 containing MgCl2, sodium othrovanadate, and Triton X-100. After 1 hour, the reaction was stopped with EDTA and anti-phospho-histone H3 Europium Cryptate (Cis-Bio) and SA-APC (Phycolink, Prozyme) were added to detect the phosphopeptide. The amount of phosphorylation was determined by the time-resolved fluorescence ratio of signals at 665 nm and 615 nm. The IC50's were calculated by an exponential fit of the inhibition values with the inhibitor concentrations using Assay Explorer software.

Structures are written as SMILES. Bounds are passed on as bounds.

Chain of KDR (P35968 789-1354): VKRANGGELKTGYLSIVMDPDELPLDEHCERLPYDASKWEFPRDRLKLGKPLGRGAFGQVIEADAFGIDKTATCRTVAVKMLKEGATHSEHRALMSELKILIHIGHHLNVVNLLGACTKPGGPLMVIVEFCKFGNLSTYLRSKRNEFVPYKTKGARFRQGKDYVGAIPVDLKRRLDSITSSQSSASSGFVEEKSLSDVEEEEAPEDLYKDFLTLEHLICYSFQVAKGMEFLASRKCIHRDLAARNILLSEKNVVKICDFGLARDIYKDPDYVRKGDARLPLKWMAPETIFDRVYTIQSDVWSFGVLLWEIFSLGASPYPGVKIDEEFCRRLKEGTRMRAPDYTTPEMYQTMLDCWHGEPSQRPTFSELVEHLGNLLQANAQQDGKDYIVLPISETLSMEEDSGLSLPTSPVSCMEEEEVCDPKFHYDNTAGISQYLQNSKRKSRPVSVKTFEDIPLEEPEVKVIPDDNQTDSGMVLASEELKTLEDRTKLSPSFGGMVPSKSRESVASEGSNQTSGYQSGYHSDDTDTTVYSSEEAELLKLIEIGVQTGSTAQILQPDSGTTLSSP

Turning to `Cc1cccc(NC(=O)Nc2ccc(-c3ccc4c(-c5ccc[nH]5)n[nH]c4c3)cc2)c1` [Example 4, N-(3-methylphenyl)-N′-{4-[3-(1H-pyrrol-2-yl)-1H-indazol-6-yl]phenyl}urea], the IC50 on KDR was found to be 291 nM; at Aurora A, 1460 nM; against Aurora B it was 207 nM.

With `Cn1cc(-c2n[nH]c3cc(-c4ccc(NC(=O)Nc5ccccc5OC(F)(F)F)cc4)ccc23)cn1` [Example 27, N-{4-[3-(1-methyl-1H-pyrazol-4-yl)-1H-indazol-6-yl]phenyl}-N′-[2-(trifluoromethoxy)phenyl]urea], the IC50 was 97.6 nM against KDR, greater than 12500 nM against Aurora A and 773 nM against Aurora B.

With `Cc1cccc(NC(=O)Nc2ccc(-c3ccc4c(-c5cnn(CCN6CCOCC6)c5)n[nH]c4c3)cc2)c1` [Example 5, N-(3-methylphenyl)-N′-(4-{3-[1-(2-morpholin-4-ylethyl)-1H-pyrazol-4-yl]-1H-indazol-6-yl}phenyl)urea], the concentration for half-maximal inhibition (IC50) at KDR is 31.7 nM; on Aurora A, greater than 12500 nM; against Aurora B, 194 nM.

On to `Cc1cccc(NC(=O)Nc2cccc(-c3ccc4c(-c5cccnc5)n[nH]c4c3)c2)c1` [Example 34, N-(3-methylphenyl)-N′-[3-(3-pyridin-3-yl-1H-indazol-6-yl)phenyl]urea], for which the results for the IC50 against KDR, on Aurora A and on Aurora B were 278 nM, greater than 12500 nM and greater than 12500 nM, respectively.

As to `Cc1cccc(NC(=O)Nc2cccc(-c3ccc4c(-c5cnn(C)c5)n[nH]c4c3)c2)c1` [Example 17, N-(3-methylphenyl)-N′-{3-[3-(1-methyl-1H-pyrazol-4-yl)-1H-indazol-6-yl]phenyl}urea], the figures for the IC50 at KDR, against Aurora A and at Aurora B were 48.8 nM, greater than 12500 nM and 1320 nM, respectively.

As to `Cn1nccc1-c1n[nH]c2cc(-c3ccc(NC(=O)Nc4cccc(F)c4)cc3)ccc12` [Example 14, N-(3-fluorophenyl)-N′-{4-[3-(1-methyl-1H-pyrazol-5-yl)-1H-indazol-6-yl]phenyl}urea], the IC50 at KDR, on Aurora A and against Aurora B was greater than 12500 nM in each case.

In the case of `Cc1cccc(NC(=O)Nc2ccc(-c3ccc4c(-c5ccsc5)n[nH]c4c3)cc2)c1` [Example 7, N-(3-methylphenyl)-N′-[4-(3-thien-3-yl-1H-indazol-6-yl)phenyl]urea], the IC50 was 12300 nM on KDR, greater than 12500 nM at Aurora A and greater than 12500 nM at Aurora B.

Regarding `CC(C)(O)Cn1cc(-c2n[nH]c3cc(-c4ccc(NC(=O)Nc5cccc(F)c5)cc4)ccc23)cn1` [Example 15, N-(3-fluorophenyl)-N′-(4-{3-[1-(2-hydroxy-2-methylpropyl)-1H-pyrazol-4-yl]-1H-indazol-6-yl}phenyl)urea], the IC50 is 6690 nM against KDR, greater than 12500 nM against Aurora A and 142 nM against Aurora B.

With `CCCn1cc(-c2n[nH]c3cc(-c4ccc(NC(=O)Nc5cccc(F)c5)cc4)ccc23)cn1` [Example 13, N-(3-fluorophenyl)-N′-{4-[3-(1-propyl-1H-pyrazol-4-yl)-1H-indazol-6-yl]phenyl}urea], the IC50 against KDR amounted to 217 nM; on Aurora A, 10900 nM; against Aurora B it was 86.4 nM.

For the compound `Cc1cccc(NC(=O)Nc2ccc(-c3ccc4c(-c5cc6ccccc6[nH]5)n[nH]c4c3)cc2)c1` [Example 36, N-{4-[3-(1H-indol-2-yl)-1H-indazol-6-yl]phenyl}-N′-(3-methylphenyl)urea], the IC50 is 303 nM at KDR, greater than 12500 nM against Aurora A and greater than 12500 nM against Aurora B.

Take `Cc1cccc(NC(=O)Nc2ccc(-c3ccc4c(-c5ccccc5)n[nH]c4c3)cc2)c1` [Example 32, N-(3-methylphenyl)-N′-[4-(3-phenyl-1H-indazol-6-yl)phenyl]urea]: the IC50 is 3610 nM on KDR, greater than 12500 nM against Aurora A and 1920 nM on Aurora B.

`O=C(Nc1ccc(-c2ccc3c(-c4cnn(CCO)c4)n[nH]c3c2)cc1)Nc1cccc(C(F)(F)F)c1` [Example 11, N-(4-{3-[1-(2-hydroxyethyl)-1H-pyrazol-4-yl]-1H-indazol-6-yl}phenyl)-N′-[3-(trifluoromethyl)phenyl]urea]: the IC50 is 20.7 nM on KDR, greater than 12500 nM against Aurora A and 136 nM against Aurora B.

For `Cn1cc(-c2n[nH]c3cc(-c4ccc(CNC(=O)c5cccc(F)c5)cc4)ccc23)cn1` [Example 31, 3-fluoro-N-{4-[3-(1-methyl-1H-pyrazol-4-yl)-1H-indazol-6-yl]benzyl}benzamide], the IC50 at KDR came out at 1790 nM; against Aurora A, 5210 nM; at Aurora B, 142 nM.

As to `Cn1cc(-c2n[nH]c3cc(-c4ccc(NC(=O)Nc5cccc(OC(F)(F)F)c5)cc4)ccc23)cn1` [Example 25, N-{4-[3-(1-methyl-1H-pyrazol-4-yl)-1H-indazol-6-yl]phenyl}-N′-[3-(trifluoromethoxy)phenyl]urea], the concentration for half-maximal inhibition (IC50) against KDR is 30.2 nM; on Aurora A, greater than 12500 nM; on Aurora B, 493 nM.

On to `Cn1cc(-c2n[nH]c3cc(-c4ccc(NC(=O)Nc5ccc(OC(F)(F)F)cc5)cc4)ccc23)cn1` [Example 28, N-{4-[3-(1-methyl-1H-pyrazol-4-yl)-1H-indazol-6-yl]phenyl}-N′-[4-(trifluoromethoxy)phenyl]urea], for which the IC50 against KDR was 38 nM; against Aurora A it was greater than 12500 nM; on Aurora B, 871 nM.

With `Cn1cc(-c2n[nH]c3cc(-c4ccc(NC(=O)Nc5cccc(C(F)(F)F)c5)cc4)ccc23)cn1` [Example 18, N-{4-[3-(1-methyl-1H-pyrazol-4-yl)-1H-indazol-6-yl]phenyl}-N′-[3-(trifluoromethyl)phenyl]urea], the IC50 at KDR was 23.7 nM; against Aurora A, greater than 12500 nM; against Aurora B, 156 nM.

Regarding `Cn1cc(-c2n[nH]c3cc(-c4ccc(CNC(=O)Nc5cccc(F)c5)cc4)ccc23)cn1` [Example 24, N-(3-fluorophenyl)-N′-{4-[3-(1-methyl-1H-pyrazol-4-yl)-1H-indazol-6-yl]benzyl}urea], the values for the 50% inhibitory concentration (IC50) against KDR, against Aurora A and against Aurora B were greater than 12500 nM, greater than 12500 nM and 1030 nM, respectively.

As for `Cc1cccc(NC(=O)Nc2ccc(-c3ccc4c(-c5cscn5)n[nH]c4c3)cc2)c1` [Example 35, N-(3-methylphenyl)-N′-{4-[3-(1,3-thiazol-4-yl)-1H-indazol-6-yl]phenyl}urea], the IC50 is 558 nM at KDR, greater than 12500 nM against Aurora A and 569 nM against Aurora B.

On to `Cc1cccc(NC(=O)Nc2ccc(-c3ccc4c(-c5cccnc5)n[nH]c4c3)cc2)c1` [Example 33, N-(3-methylphenyl)-N′-[4-(3-pyridin-3-yl-1H-indazol-6-yl)phenyl]urea], for which the values for the IC50 against KDR, at Aurora A and against Aurora B were 584 nM, greater than 12500 nM and 120 nM, respectively.
